PubChem BioAssay (NCI)
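Tested at 5 concentrations; 48 h exposure; 96-well plates; endpoints linearly interpolated, else capped at highest concentration. TGI is the concentration that stops growth completely.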

Columns and labels:
Test in all cases: growth of human tumour cells (NCI), 48 h
HT29 colon = tested on: HT29 colon
SW-620 colon = tested on: SW-620 colon
NCI-H226 lung = tested on: NCI-H226 lung
CAKI-1 renal = tested on: CAKI-1 renal
NCI-H23 lung = tested on: NCI-H23 lung
SN12C renal = tested on: SN12C renal
PC-3 prostate = tested on: PC-3 prostate
ACHN renal = tested on: ACHN renal
OVCAR-4 ovarian = tested on: OVCAR-4 ovarian
EKVX NSCLC = tested on: EKVX NSCLC
MOLT-4 leukemia = tested on: MOLT-4 leukemia
MDA-MB-435 = tested on: MDA-MB-435
OVCAR-3 ovarian = tested on: OVCAR-3 ovarian
K-562 leukemia = tested on: K-562 leukemia
A549 NSCLC = tested on: A549 NSCLC
NCI/ADR-RES ovarian = tested on: NCI/ADR-RES ovarian
MDA-MB-231 breast = tested on: MDA-MB-231 breast
SK-MEL-28 melanoma = tested on: SK-MEL-28 melanoma
HCT-116 colon = tested on: HCT-116 colon
SF-539 CNS = tested on: SF-539 CNS
CCRF-CEM leukemia = tested on: CCRF-CEM leukemia
SR leukemia = tested on: SR leukemia
OVCAR-5 ovarian = tested on: OVCAR-5 ovarian
M14 melanoma = tested on: M14 melanoma
TK-10 renal = tested on: TK-10 renal
HOP-62 NSCLC = tested on: HOP-62 NSCLC
786-0 renal = tested on: 786-0 renal
KM12 colon = tested on: KM12 colon
UACC-257 melanoma = tested on: UACC-257 melanoma
HL-60(TB) leukemia = tested on: HL-60(TB) leukemia
DU-145 prostate = tested on: DU-145 prostate
COLO 205 colon = tested on: COLO 205 colon
UACC-62 melanoma = tested on: UACC-62 melanoma
SK-MEL-5 melanoma = tested on: SK-MEL-5 melanoma
HCT-15 colon = tested on: HCT-15 colon
MCF7 breast = tested on: MCF7 breast
NCI-H460 lung = tested on: NCI-H460 lung
U251 CNS = tested on: U251 CNS
NCI-H522 lung = tested on: NCI-H522 lung
T-47D breast = tested on: T-47D breast
MDA-N = tested on: MDA-N
SF-268 CNS = tested on: SF-268 CNS
UO-31 renal = tested on: UO-31 renal
HS 578T breast = tested on: HS 578T breast
OVCAR-8 ovarian = tested on: OVCAR-8 ovarian
RPMI-8226 leukemia = tested on: RPMI-8226 leukemia
BT-549 breast = tested on: BT-549 breast
MALME-3M melanoma = tested on: MALME-3M melanoma
A498 renal = tested on: A498 renal
RXF 393 renal = tested on: RXF 393 renal
LOX IMVI melanoma = tested on: LOX IMVI melanoma
SF-295 CNS = tested on: SF-295 CNS
SNB-75 CNS = tested on: SNB-75 CNS
IGROV1 ovarian = tested on: IGROV1 ovarian
SNB-19 CNS = tested on: SNB-19 CNS
SK-MEL-2 melanoma = tested on: SK-MEL-2 melanoma
HOP-92 NSCLC = tested on: HOP-92 NSCLC
SK-OV-3 ovarian = tested on: SK-OV-3 ovarian
HCC-2998 colon = tested on: HCC-2998 colon

## COC(=O)CC(c1cn(S(=O)(=O)c2ccc(C)cc2)c2ccccc12)C1C[C@@H](C(=O)OC)N(C(=O)OC(C)(C)C)C1=O (stereo partly drawn)
HT29 colon
  TGI: > 100 µM
SW-620 colon
  TGI: > 100 µM
NCI-H226 lung
  TGI: > 100 µM
CAKI-1 renal
  TGI: > 100 µM
NCI-H23 lung
  TGI: > 100 µM
SN12C renal
  TGI: > 100 µM
PC-3 prostate
  TGI: > 100 µM
ACHN renal
  TGI: > 100 µM
OVCAR-4 ovarian
  TGI: > 100 µM
EKVX NSCLC
  TGI: > 100 µM
MOLT-4 leukemia
  TGI: 21 µM
MDA-MB-435
  TGI: > 100 µM
OVCAR-3 ovarian
  TGI: > 100 µM
K-562 leukemia
  TGI: > 100 µM
A549 NSCLC
  TGI: > 100 µM
NCI/ADR-RES ovarian
  TGI: > 100 µM
MDA-MB-231 breast
  TGI: > 100 µM
SK-MEL-28 melanoma
  TGI: > 100 µM
HCT-116 colon
  TGI: > 100 µM
SF-539 CNS
  TGI: 65.6 µM
CCRF-CEM leukemia
  TGI: 76.9 µM
SR leukemia
  TGI: 10.4 µM
OVCAR-5 ovarian
  TGI: > 100 µM
M14 melanoma
  TGI: > 100 µM
TK-10 renal
  TGI: > 100 µM
HOP-62 NSCLC
  TGI: > 100 µM
786-0 renal
  TGI: > 100 µM
KM12 colon
  TGI: > 100 µM
UACC-257 melanoma
  TGI: > 100 µM
HL-60(TB) leukemia
  TGI: > 100 µM
DU-145 prostate
  TGI: > 100 µM
COLO 205 colon
  TGI: 86.6 µM
UACC-62 melanoma
  TGI: > 100 µM
SK-MEL-5 melanoma
  TGI: > 100 µM
HCT-15 colon
  TGI: > 100 µM
MCF7 breast
  TGI: > 100 µM
NCI-H460 lung
  TGI: > 100 µM
U251 CNS
  TGI: > 100 µM
NCI-H522 lung
  TGI: > 100 µM
T-47D breast
  TGI: > 100 µM
MDA-N
  TGI: > 100 µM
SF-268 CNS
  TGI: > 100 µM
UO-31 renal
  TGI: > 100 µM
HS 578T breast
  TGI: > 100 µM
OVCAR-8 ovarian
  TGI: > 100 µM
RPMI-8226 leukemia
  TGI: 35.4 µM
BT-549 breast
  TGI: > 100 µM
MALME-3M melanoma
  TGI: > 100 µM
A498 renal
  TGI: > 100 µM
RXF 393 renal
  TGI: > 100 µM
LOX IMVI melanoma
  TGI: > 100 µM
SF-295 CNS
  TGI: > 100 µM
SNB-75 CNS
  TGI: > 100 µM
IGROV1 ovarian
  TGI: > 100 µM
SNB-19 CNS
  TGI: > 100 µM
SK-MEL-2 melanoma
  TGI: > 100 µM

## O=c1oc2ccccc2cc1-c1csc(Nc2ccc(F)cc2)n1
HT29 colon
  TGI: 14.2 µM
SW-620 colon
  TGI: 15.3 µM
NCI-H226 lung
  TGI: 19.7 µM
CAKI-1 renal
  TGI: 10.6 µM
NCI-H23 lung
  TGI: 11 µM
SN12C renal
  TGI: 10.1 µM
PC-3 prostate
  TGI: 19.3 µM
ACHN renal
  TGI: 26.3 µM
OVCAR-4 ovarian
  TGI: > 36 µM
EKVX NSCLC
  TGI: 8.63 µM
MOLT-4 leukemia
  TGI: > 25.4 µM
MDA-MB-435
  TGI: 17 µM
HOP-92 NSCLC
  TGI: 24.4 µM
OVCAR-3 ovarian
  TGI: 19.6 µM
K-562 leukemia
  TGI: 20.6 µM
A549 NSCLC
  TGI: 3.23 µM
NCI/ADR-RES ovarian
  TGI: 13 µM
MDA-MB-231 breast
  TGI: 26 µM
SK-MEL-28 melanoma
  TGI: 6.6 µM
SK-OV-3 ovarian
  TGI: 15.6 µM
HCT-116 colon
  TGI: 5.65 µM
SF-539 CNS
  TGI: 3.5 µM
CCRF-CEM leukemia
  TGI: 16.3 µM
OVCAR-5 ovarian
  TGI: 20.9 µM
M14 melanoma
  TGI: 13.6 µM
TK-10 renal
  TGI: 8.21 µM
HOP-62 NSCLC
  TGI: 8.22 µM
786-0 renal
  TGI: 3.17 µM
KM12 colon
  TGI: 18.4 µM
UACC-257 melanoma
  TGI: > 52 µM
HL-60(TB) leukemia
  TGI: 35.3 µM
DU-145 prostate
  TGI: 11.3 µM
COLO 205 colon
  TGI: 14.9 µM
UACC-62 melanoma
  TGI: 43.9 µM
HCC-2998 colon
  TGI: 17.1 µM
SK-MEL-5 melanoma
  TGI: 23.9 µM
HCT-15 colon
  TGI: 11.2 µM
MCF7 breast
  TGI: 15.5 µM
NCI-H460 lung
  TGI: 22.3 µM
U251 CNS
  TGI: 9.55 µM
NCI-H522 lung
  TGI: 3.82 µM
T-47D breast
  TGI: 10.7 µM
MDA-N
  TGI: 16.5 µM
SF-268 CNS
  TGI: 9.09 µM
UO-31 renal
  TGI: 6.42 µM
HS 578T breast
  TGI: 4.61 µM
OVCAR-8 ovarian
  TGI: 23.5 µM
RPMI-8226 leukemia
  TGI: 4.44 µM
BT-549 breast
  TGI: 17.4 µM
A498 renal
  TGI: 5.09 µM
RXF 393 renal
  TGI: 28.2 µM
LOX IMVI melanoma
  TGI: 14.9 µM
SF-295 CNS
  TGI: 10.7 µM
SNB-75 CNS
  TGI: 4.57 µM
IGROV1 ovarian
  TGI: 21.9 µM
SNB-19 CNS
  TGI: > 37.6 µM
SK-MEL-2 melanoma
  TGI: 39.2 µM
